Measurements published in US9624229B2, “Pyrimidine-2-amine compounds and their use as inhibitors of JAK kinases” (Rigel Pharmaceuticals, Inc., priority 2008, dated 2017).

target: Ba/F3 V617F cells (Homo sapiens, UniProt O60674, V617F, cells depend on it); assay: Proliferation assay (Cell Titer-Glo, 72 h) utilizing Ba/F3 V617F cells; format: cell-based, mouse; settings: Ba/F3 V617F cells, proliferation, level of activity given as class symbol, read-out: IC50 (the source's name)
In short: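 Readout is CellTiter-Glo luminescence after 72 h at 37 °C, giving IC50. Cells: Ba/F3 V617F, 1×10^5 cells/mL in RPMI with 10% FBS, treated in duplicate with 3-fold dilution series made from 5 mM DMSO stock, 1:250 in 5% FBS medium, added at 2×.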

Sequence of Ba/F3 V617F cells (O60674 whole entry V617F): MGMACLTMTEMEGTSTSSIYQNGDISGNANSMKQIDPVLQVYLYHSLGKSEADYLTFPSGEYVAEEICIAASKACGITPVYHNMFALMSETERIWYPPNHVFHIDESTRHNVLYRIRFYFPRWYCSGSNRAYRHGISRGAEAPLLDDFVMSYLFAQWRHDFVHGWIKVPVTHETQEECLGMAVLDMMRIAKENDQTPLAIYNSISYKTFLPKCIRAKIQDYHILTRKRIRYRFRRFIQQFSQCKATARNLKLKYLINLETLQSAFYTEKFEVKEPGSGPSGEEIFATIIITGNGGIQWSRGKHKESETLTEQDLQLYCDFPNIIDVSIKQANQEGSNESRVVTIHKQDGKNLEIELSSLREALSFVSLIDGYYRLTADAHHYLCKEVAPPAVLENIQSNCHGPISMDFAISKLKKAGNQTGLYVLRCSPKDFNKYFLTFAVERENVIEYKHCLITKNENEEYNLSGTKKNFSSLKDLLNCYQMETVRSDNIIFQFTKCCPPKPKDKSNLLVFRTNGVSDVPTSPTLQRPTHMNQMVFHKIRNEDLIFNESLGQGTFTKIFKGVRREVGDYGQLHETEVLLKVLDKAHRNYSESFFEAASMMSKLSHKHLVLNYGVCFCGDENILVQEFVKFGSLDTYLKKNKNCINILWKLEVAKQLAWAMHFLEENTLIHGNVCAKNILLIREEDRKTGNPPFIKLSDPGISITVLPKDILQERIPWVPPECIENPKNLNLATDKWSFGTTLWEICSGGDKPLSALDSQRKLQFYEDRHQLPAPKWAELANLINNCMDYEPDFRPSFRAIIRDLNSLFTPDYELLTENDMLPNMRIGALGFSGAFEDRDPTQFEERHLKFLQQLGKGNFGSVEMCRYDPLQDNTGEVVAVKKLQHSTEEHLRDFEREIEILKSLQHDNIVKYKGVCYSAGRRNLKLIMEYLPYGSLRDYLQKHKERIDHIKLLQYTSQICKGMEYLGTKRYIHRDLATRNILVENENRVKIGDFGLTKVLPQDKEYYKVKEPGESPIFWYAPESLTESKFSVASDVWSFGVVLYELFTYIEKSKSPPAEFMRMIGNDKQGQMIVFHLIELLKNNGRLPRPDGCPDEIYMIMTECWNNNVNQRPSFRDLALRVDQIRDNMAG

| Compound | GI50 |
| --- | --- |
| Cc1cc(Nc2nccc(-c3ccc(N4CCOCC4)nc3)n2)ccc1N1CCN2CC[C@@H]1C2 [compound 276, 4-(6-(morpholin-4-yl)pyridin-3-yl)-N-(3-methyl-4-((R)-1,4-diazabicyclo[3.2.1]octan-4-yl)phenyl)pyrimidin-2-amine] | < 1000 nM |
| Cc1cc(Nc2nccc(-c3ccc(NCCCN(C)C)nc3)n2)ccc1N1CC2(C)CN(C)CC(C)(C1)C2 [compound 214, 4-(6-(3-dimethylamino)propylaminopyridin-3-yl)-N-(3-methyl-4-(1,5,7-trimethyl-3,7-diazabicyclo[3.3.1]nonan-3-yl)phenyl)pyrimidin-2-amine] | 1000 to 10000 nM |
| Cc1cc(Nc2nccc(-c3ccc(N4CCOCC4)nc3)n2)ccc1N1C2CCC1CC(N1CCOCC1)C2 (stereo not shown) [compound 284, 4-(6-(morpholin-4-yl)pyridin-3-yl)-N-(3-methyl-4-(3-(morpholin-4-yl)-8-azabicyclo[3.2.1]octan-8-yl)phenyl)pyrimidin-2-amine] | < 1000 nM |
| Cc1cc(Nc2nccc(-c3ccc(NCCCN(C)C)nc3)n2)ccc1N1C[C@@H]2C[C@H]1CN2C [compound 198, 4-(6-(3-dimethylamino)propylaminopyridin-3-yl)-N-(3-methyl-4-((1S,4S)-5-methyl-2,5-diazabicyclo[2.2.1]heptan-2-yl)phenyl)pyrimidin-2-amine] | 1000 to 10000 nM |
| CC(=O)N1C[C@@H]2C[C@H]1CN2c1ccc(Nc2nccc(-c3ccc(OC4CCOCC4)nc3)n2)cc1Cl [compound 260, 4-(6-(tetrahydropyran-4-yloxy)pyridin-3-yl)-N-(3-chloro-4-((1S,4S)-5-acetyl-2,5-diazabicyclo[2.2.1]heptan-2-yl)phenyl)pyrimidin-2-amine] | 1000 to 10000 nM |
| Cc1cc(Nc2nccc(-c3cnc4c(c3)CN3CCCC3C(=O)N4)n2)ccc1N1C[C@@H]2C[C@H]1CN2C (stereo partly drawn) [compound 270, 4-(7,8,9,9a-tetrahydro-5H-pyrido[2,3-e]pyrrolo[1,2-a][1,4]diazepin-10(11H)-on-3-yl)-N-(3-methyl-4-((1S,4S)-5-methyl-2,5-diazabicyclo[2.2.1]heptan-2-yl)phenyl)pyrimidin-2-amine] | < 1000 nM |

The next lines start with the values.

| GI50 | Compound |
| --- | --- |
| < 1000 nM | Cc1cc(Nc2nccc(-c3cnc4c(c3)OCC(=O)N4)n2)ccc1N1C[C@@H]2C[C@H]1CN2C [compound 209, 4-(3-oxo-3,4-dihydro-2H-pyrido[3,2-b][1,4]oxazin-7-yl)-N-(3-methyl-4-((1S,4S)-5-methyl-2,5-diazabicyclo[2.2.1]heptan-2-yl)phenyl)pyrimidin-2-amine] |
| < 1000 nM | Cc1cc(Nc2nccc(-c3ccc(N4CCOCC4)nc3)n2)ccc1N1C[C@@H]2CC[C@H]1C2 [compound 222, 4-(6-(morpholin-4-yl)pyridin-3-yl)-N-(3-methyl-4-((1S,4R)-2-azabicyclo[2.2.1]heptan-2-yl)phenyl)pyrimidin-2-amine] |

same assay, conditions: Ba/F3 V617F cells, proliferation, level of activity to inhibit JAK2, read-out: IC50 (the source's name)

| Compound | GI50 |
| --- | --- |
| Cc1cc(Nc2nccc(-c3ccc(NC(=O)CN4CCOCC4)nc3)n2)ccc1N1C[C@@H]2C[C@H]1CN2C [compound 141, 4-(6-(2-(morpholin-4-yl)acetamido)pyridin-3-yl)-N-(3-methyl-4-((1S,4S)-5-methyl-2,5-diazabicyclo[2.2.1]heptan-2-yl)phenyl)pyrimidin-2-amine] | < 1000 nM |
| Cc1cc(Nc2nccc(-c3ccc(N(C)C)nc3)n2)ccc1N1CC2(C)CN(C)CC(C)(C1)C2 [compound 76, 4-(6-(dimethylamino)pyridin-3-yl)-N-(3-methyl-4-(1,5,7-trimethyl-3,7-diazabicyclo[3.3.1]nonan-3-yl)phenyl)pyrimidin-2-amine] | < 1000 nM |
| CN1C[C@@H]2C[C@H]1CN2c1ccc(Nc2nccc(-c3ccc(NCCN4CCOCC4)nc3)n2)cc1 [compound 69, 4-(6-(2-(morpholin-4-yl)ethyl)aminopyridin-3-yl)-N-(4-((1S,4S)-5-methyl-2,5-diazabicyclo[2.2.1]heptan-2-yl)phenyl)pyrimidin-2-amine] | 1000 to 10000 nM |
| COc1ccc2cc(-c3ccnc(Nc4ccc(N5C[C@@H]6C[C@H]5CN6C)c(C)c4)n3)[nH]c2c1 [compound 105, 4-(6-methoxy-1H-indol-2-yl)-N-(3-methyl-4-((1S,4S)-5-methyl-2,5-diazabicyclo[2.2.1]heptan-2-yl)phenyl)pyrimidin-2-amine] | < 1000 nM |
| CCN1C[C@@H]2C[C@H]1CN2c1ccc(Nc2nccc(-c3cnc4c(c3)OC(C)(C)C(=O)N4)n2)cc1C [compound 30, 4-(2,2-dimethyl-3-oxo-3,4-dihydro-2H-pyrido[3,2-b][1,4]oxazin-7-yl)-N-(3-methyl-4-((1S,4S)-5-ethyl-2,5-diazabicyclo[2.2.1]heptan-2-yl)phenyl)pyrimidin-2-amine] | < 1000 nM |
| Cc1cc(Nc2ncc(C(F)(F)F)c(-c3ccc(N(C)C)nc3)n2)ccc1N1C[C@@H]2C[C@H]1CN2C [compound 3, 4-(6-(N,N-dimethylamino)pyridin-3-yl)-5-trifluoromethyl-N-(3-methyl-4-((1S,4S)-5-methyl-2,5-diazabicyclo[2.2.1]heptan-2-yl)phenyl)pyrimidin-2-amine] | 1000 to 10000 nM |
| CN1CC2(C)CN(c3ccc(Nc4nccc(-c5ccc(N(C)C)cc5)n4)cc3F)CC(C)(C1)C2 [compound 84, 4-(4-(dimethylamino)phenyl)-N-(3-fluoro-4-(1,5,7-trimethyl-3,7-diazabicyclo[3.3.1]nonan-3-yl)phenyl)pyrimidin-2-amine] | < 1000 nM |
| Cc1cc(Nc2nccc(-c3ccc(NC(=O)CN(C)C)nc3)n2)ccc1N1C[C@@H]2C[C@H]1CN2C [compound 152, 4-(6-(2-(dimethylamino)acetamido)-pyridin-3-yl)-N-(3-methyl-4-((1S,4S)-5-methyl-2,5-diazabicyclo[2.2.1]heptan-2-yl)phenyl)pyrimidin-2-amine] | < 1000 nM |
| CCCNc1ncc(-c2ccnc(Nc3ccc(N4C[C@@H]5C[C@H]4CN5C)c(F)c3)n2)cn1 [compound 93, 4-(2-(propyl)aminopyrimidin-5-yl)-N-(3-fluoro-4-((1S,4S)-5-methyl-2,5-diazabicyclo[2.2.1]heptan-2-yl)phenyl)pyrimidin-2-amine] | < 1000 nM |
| CC1CCCN(c2cnc(-c3ccnc(Nc4ccc(N5C[C@@H]6C[C@H]5CN6C)c(F)c4)n3)cn2)C1 (stereo partly drawn) [compound 127, 4-(5-(3-methylpiperidin-1-yl)pyrazin-2-yl)-N-(3-fluoro-4-((1S,4S)-5-methyl-2,5-diazabicyclo[2.2.1]heptan-2-yl)phenyl)pyrimidin-2-amine] | 1000 to 10000 nM |
| CN1C[C@@H]2C[C@H]1CN2c1ccc(Nc2nccc(-c3ccc(N4CCOCC4)nc3)n2)cc1C(F)(F)F [compound 97, 4-(6-(morpholin-4-yl)pyridin-3-yl)-N-(3-trifluoromethyl-4-((1S,4S)-5-methyl-2,5-diazabicyclo[2.2.1]heptan-2-yl)phenyl)pyrimidin-2-amine] | < 1000 nM |
| CCC(=O)N1C[C@@H]2C[C@H]1CN2c1ccc(Nc2nccc(-c3cnc4c(c3)OC(C)(C)C(=O)N4)n2)cc1C [compound 28, 4-(2,2-dimethyl-3-oxo-3,4-dihydro-2H-pyrido[3,2-b][1,4]oxazin-7-yl)-N-(3-methyl-4-((1S,4S)-5-(ethylcarbonyl)-2,5-diazabicyclo[2.2.1]heptan-2-yl)phenyl)pyrimidin-2-amine] | < 1000 nM |

The next lines start with the values.

| GI50 | Compound |
| --- | --- |
| < 1000 nM | CN1C[C@@H]2C[C@H]1CN2c1ccc(Nc2nccc(-c3ccc4c(c3)NC(=O)CO4)n2)cc1F [compound 124, 4-(2H-benzo[b][1,4]oxazin-3(4H)-on-6-yl)-N-(3-fluoro-4-((1S,4S)-5-methyl-2,5-diazabicyclo[2.2.1]heptan-2-yl)phenyl)pyrimidin-2-amine] |
| < 1000 nM | Cc1cc(Nc2nccc(-c3cc4cc(C#N)ccc4[nH]3)n2)ccc1N1C[C@@H]2C[C@H]1CN2C [compound 108, 4-(5-cyano-1H-indol-2-yl)-N-(3-methyl-4-((1S,4S)-5-methyl-2,5-diazabicyclo[2.2.1]heptan-2-yl)phenyl)pyrimidin-2-amine] |
| < 1000 nM | CN1C2CCC1CN(c1ccc(Nc3nccc(-c4ccc(N5CCOCC5)nc4)n3)cc1)C2 [compound 155, 4-(6-(morpholin-4-yl)pyridin-3-yl)-N-(4-(8-methyl-3,8-diazabicyclo[3.2.1]octan-3-yl)phenyl)pyrimidin-2-amine] |
| < 1000 nM | CN1CC2(C)CN(c3ccc(Nc4nccc(-c5ccc(Cc6ccccc6)nc5)n4)cc3F)CC(C)(C1)C2 [compound 91, 4-(6-(benzyl)pyridin-3-yl)-N-(3-fluoro-4-(1,5,7-trimethyl-3,7-diazabicyclo[3.3.1]nonan-3-yl)phenyl)pyrimidin-2-amine] |
| < 1000 nM | Cc1cc(Nc2nccc(-c3cnc4c(c3)OC(C)(C)C(=O)N4C)n2)ccc1N1C[C@@H]2C[C@H]1CN2C [compound 125, 4-(2,2,4-trimethyl-3-oxo-3,4-dihydro-2H-pyrido[3,2-b][1,4]oxazin-7-yl)-N-(3-methyl-4-((1S,4S)-5-methyl-2,5-diazabicyclo[2.2.1]heptan-2-yl)phenyl)pyrimidin-2-amine] |
| < 1000 nM | Cc1cc(Nc2nccc(-c3ccc4ncn(C)c4c3)n2)ccc1N1CCN2CCC1C2 (stereo not shown) [compound 122, (1-methylbenzimidazol-6-yl)-N-(3-methyl-4-(1,4-diazabicyclo[3.2.1]octan-4-yl)phenyl)pyrimidin-2-amine] |

same assay, conditions: inhibition of JAK2 activity, proliferation of Ba/F3 V617F cells, read-out: IC50 (the source's name)

| GI50 | Compound |
| --- | --- |
| < 1000 nM | Cc1cc(Nc2nccc(-c3cnc4c(c3)OCCN4C)n2)cnc1N1C[C@@H]2C[C@H]1CN2C [compound 65, 4-(4-methyl-3,4-dihydro-2H-pyrido[3,2-b][1,4]oxazin-7-yl)-N-(5-methyl-6-((1S,4S)-5-methyl-2,5-diazabicyclo[2.2.1]heptan-2-yl)pyridin-3-yl)pyrimidin-2-amine] |
| > 20000 nM | CN(C)c1nc(-c2ccnc(Nc3ccc(N4C[C@@H]5C[C@H]4CN5C)nc3)n2)cs1 [compound 177, 4-(2-(dimethylamino)thiazol-4-yl)-N-(6-((1S,4S)-5-methyl-2,5-diazabicyclo[2.2.1]heptan-2-yl)pyridin-3-yl)pyrimidin-2-amine] |
